Series [1] is described as follows: Plasma protein binding in human at 5 uM after 4 hrs by equilibrium dialysis method. In kind it is ADME, cell-free. Conditions: read-out: PPB. (In general: In equilibrium dialysis free small molecules cross a membrane that holds back macromolecules.)
A short description of series [2]: Apparent permeability across basolateral to apical side in MDCK cells at 100 uM after 60 mins by HPLC analysis. In kind it is ADME, cell-based, Canis lupus familiaris. Conditions: dog.
Series [3] deals with T1, Nuclear receptor subfamily 1 group I member 2 (Homo sapiens, UniProt O75469).
T1 sequence (O75469 whole entry): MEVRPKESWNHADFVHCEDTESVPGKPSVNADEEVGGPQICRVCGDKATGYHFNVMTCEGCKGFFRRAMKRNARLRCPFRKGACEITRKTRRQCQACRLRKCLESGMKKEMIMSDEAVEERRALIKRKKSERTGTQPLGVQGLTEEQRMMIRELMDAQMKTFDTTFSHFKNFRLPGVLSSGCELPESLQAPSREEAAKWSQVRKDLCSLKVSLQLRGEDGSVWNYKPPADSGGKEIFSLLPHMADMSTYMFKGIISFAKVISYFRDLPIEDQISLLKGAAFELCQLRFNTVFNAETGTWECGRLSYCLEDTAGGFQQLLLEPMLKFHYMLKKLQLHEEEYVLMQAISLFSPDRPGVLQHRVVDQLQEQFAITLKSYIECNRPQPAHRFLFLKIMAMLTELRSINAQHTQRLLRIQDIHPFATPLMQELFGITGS
As to the kind of experiment: Agonist activity at GAL4-fused human PXR expressed in HEK293 cells assessed as activation of basal transcriptional activity up to 10 uM after 20 hrs by dual-glo luciferase reporter gene assay. In kind it is cell-based. Particulars: hek293, 20 h.

The target in series [4] is T2, Oxysterols receptor LXR-beta (Homo sapiens, UniProt P55055).
T2 sequence (P55055 whole entry): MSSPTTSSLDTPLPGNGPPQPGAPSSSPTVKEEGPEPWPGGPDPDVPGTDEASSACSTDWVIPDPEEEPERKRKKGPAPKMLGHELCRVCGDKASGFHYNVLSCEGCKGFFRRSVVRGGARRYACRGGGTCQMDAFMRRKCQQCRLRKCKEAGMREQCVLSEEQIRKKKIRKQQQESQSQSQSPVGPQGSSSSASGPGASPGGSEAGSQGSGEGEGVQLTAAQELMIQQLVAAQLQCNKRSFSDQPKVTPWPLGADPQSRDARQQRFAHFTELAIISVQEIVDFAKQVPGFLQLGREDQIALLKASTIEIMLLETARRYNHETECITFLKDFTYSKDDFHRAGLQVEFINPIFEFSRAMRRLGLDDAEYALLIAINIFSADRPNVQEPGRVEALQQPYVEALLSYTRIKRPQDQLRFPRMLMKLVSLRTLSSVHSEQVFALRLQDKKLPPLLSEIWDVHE
As to the kind of experiment: Antagonist activity at GAL4-fused human LXRbeta expressed in HEK293 cells assessed as inhibition of T0901317-stimulated transcriptional activity after 20 hrs by dual-glo luciferase reporter gene assay. In kind it is cell-based. Background: Reporter assays use an easily measured gene product as a stand-in for the process of interest.

In series [5] the target is T3, Oxysterols receptor LXR-beta (Homo sapiens) (UniProt P55055).
T3 sequence (whole entry): T2 sequence (P55055 whole entry)
As to the kind of experiment: Agonist activity at GAL4-fused human LXRbeta expressed in HEK293 cells assessed as activation of basal transcriptional activity up to 10 uM after 20 hrs by dual-glo luciferase reporter gene assay. In kind it is cell-based.

In series [6] the target is T4, Nuclear receptor ROR-beta (Homo sapiens, UniProt Q92753).
T4 sequence (Q92753 whole entry): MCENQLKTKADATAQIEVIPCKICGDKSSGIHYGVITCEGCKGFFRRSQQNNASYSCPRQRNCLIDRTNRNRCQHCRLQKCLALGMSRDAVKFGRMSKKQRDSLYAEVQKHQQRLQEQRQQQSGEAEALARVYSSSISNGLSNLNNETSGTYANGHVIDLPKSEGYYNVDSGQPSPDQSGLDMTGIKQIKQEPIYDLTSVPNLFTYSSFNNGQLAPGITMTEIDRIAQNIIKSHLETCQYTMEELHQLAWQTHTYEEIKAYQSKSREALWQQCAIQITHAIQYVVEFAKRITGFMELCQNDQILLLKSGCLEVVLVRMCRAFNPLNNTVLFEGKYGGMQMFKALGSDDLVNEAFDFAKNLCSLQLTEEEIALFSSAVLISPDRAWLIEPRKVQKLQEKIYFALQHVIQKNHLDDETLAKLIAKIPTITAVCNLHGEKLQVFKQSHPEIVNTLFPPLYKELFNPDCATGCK
Briefly: Inverse agonist activity at GAL4-fused human RORb expressed in HEK293 cells assessed as suppression of basal transcriptional activity after 20 hrs by dual-glo luciferase reporter gene assay. In kind it is cell-based.

Series [7] addresses T5, Nuclear receptor ROR-gamma (Homo sapiens) (UniProt P51449).
T5 sequence (whole entry): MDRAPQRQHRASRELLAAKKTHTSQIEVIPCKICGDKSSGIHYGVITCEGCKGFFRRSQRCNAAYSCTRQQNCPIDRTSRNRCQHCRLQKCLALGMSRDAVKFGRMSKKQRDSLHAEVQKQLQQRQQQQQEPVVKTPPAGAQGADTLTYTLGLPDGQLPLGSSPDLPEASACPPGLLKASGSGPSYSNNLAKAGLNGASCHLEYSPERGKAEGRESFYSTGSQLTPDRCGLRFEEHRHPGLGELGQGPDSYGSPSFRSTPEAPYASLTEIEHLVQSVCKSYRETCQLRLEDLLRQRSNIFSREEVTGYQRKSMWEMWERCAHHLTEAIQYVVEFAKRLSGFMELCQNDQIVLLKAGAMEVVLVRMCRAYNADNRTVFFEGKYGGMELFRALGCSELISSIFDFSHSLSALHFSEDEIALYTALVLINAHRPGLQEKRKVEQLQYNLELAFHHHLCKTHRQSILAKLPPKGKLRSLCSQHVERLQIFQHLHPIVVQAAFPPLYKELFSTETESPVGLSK
As to the kind of experiment: Inverse agonist activity at N-terminal 6xHis-tagged human RORc ligand binding domain (241 to 486) expressed in bacterial expression system assessed as inhibition of SRC1 co-activator peptide recruitment after 3 hrs by TR-FRET analysis relative to apo-RORc ligand binding domain. For orientation: In TR-FRET formats the signal depends on donor and acceptor labels being close together.

Series [8] addresses T6, Oxysterols receptor LXR-alpha (Homo sapiens) (UniProt Q13133).
T6 sequence (whole entry): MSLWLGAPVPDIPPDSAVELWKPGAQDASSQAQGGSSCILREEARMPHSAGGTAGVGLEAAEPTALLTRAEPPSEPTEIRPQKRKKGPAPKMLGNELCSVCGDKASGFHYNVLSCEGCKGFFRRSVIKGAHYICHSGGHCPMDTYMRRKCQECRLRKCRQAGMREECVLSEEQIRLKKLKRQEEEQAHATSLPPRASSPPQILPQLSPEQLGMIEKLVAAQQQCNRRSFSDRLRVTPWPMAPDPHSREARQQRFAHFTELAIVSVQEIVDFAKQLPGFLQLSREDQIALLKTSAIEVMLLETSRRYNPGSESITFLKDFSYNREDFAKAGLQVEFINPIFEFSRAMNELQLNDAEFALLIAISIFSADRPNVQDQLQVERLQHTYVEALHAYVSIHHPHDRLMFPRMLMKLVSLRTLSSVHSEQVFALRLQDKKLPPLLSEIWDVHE
Briefly: Agonist activity at GAL4-fused human LXRalpha expressed in HEK293 cells assessed as activation of basal transcriptional activity up to 10 uM after 20 hrs by dual-glo luciferase reporter gene assay. In kind it is cell-based.

Series [9] is described as follows: Plasma protein binding in rat at 5 uM after 4 hrs by equilibrium dialysis method. In kind it is ADME, cell-free. Conditions: read-out: PPB.

Molecules are shown by their SMILES. Activity calls are given as the source filed them. The rule behind the calls is not given here.

For orientation: Papp B→A means the apparent permeability from the basolateral to the apical side of a cell layer. Broadly, the EC50 is the concentration that produces a half-maximal response.

On to `O=C(Nc1ccc2c(c1)N(S(=O)(=O)c1ccc(F)cc1)CC2)c1c(F)cccc1F`, for which the fraction unbound at 4 h, 5 µM in series [1] is below 0.01; in [9], 0.01. Also, the Papp B→A at 1 h, 100 µM in [2] is 11 ×10⁻⁶ cm/s. The Activity entry in series [3] is given as “Not Active”. The EC50 was found to be 5.7 µM in series [4] and 7.9 µM in series [6]. In addition, the result in series [5] and in series [8] was inactive. Further, in [7], the Efficacy was -99%.

`O=C(Nc1ccc2c(c1)N(S(=O)(=O)c1ccc(F)cc1)CCC2)c1ccccc1Cl`: the fraction unbound at 4 h, 5 µM in [1] and in [9] was below 0.01 in each case. In series [2], the Papp B→A at 1 h, 100 µM came out at 15 ×10⁻⁶ cm/s. Besides, in series [3], the Activity result was “Not Active”. Moreover, the EC50 in [4] came out at 3.8 µM; in series [6] it was 4.1 µM. The result in [5] and in [8] was inactive. In [7], the Efficacy was -89%.

Take `O=C(Nc1ccc2c(c1)N(S(=O)(=O)c1ccc(F)cc1)CCC2)c1c(F)cccc1Cl`: the fraction unbound at 4 h, 5 µM in series [1] and in series [9] was below 0.01 each time. Besides, in series [2], the apparent permeability from basolateral to apical (Papp B→A) at 1 h, 100 µM was 12 ×10⁻⁶ cm/s. Also, the Activity result in [3] is given as “Not Active”. In addition, the EC50 worked out at 2.6 µM in series [4] and 3.4 µM in [6]. For the same compound, the outcome in [5] and in series [8] was inactive. Further, the Efficacy in [7] was -89%.

As to `O=C(Nc1ccc2c(c1)N(S(=O)(=O)c1ccc(F)cc1)CCC2)c1c(F)cccc1F`, the fraction unbound at 4 h, 5 µM in series [1] was below 0.01; in series [9], 0.01. Moreover, the Papp B→A at 1 h, 100 µM in [2] was 14 ×10⁻⁶ cm/s. The Activity result in series [3] is recorded as “Not Active”. The EC50 in series [4] is 3.2 µM; in series [6], 5.4 µM. Moreover, the result in series [5] and in series [8] was inactive. Further, in series [7], the Efficacy is -99%.

These data come from ChEMBL document CHEMBL3616373, “Identification of N-sulfonyl-tetrahydroquinolines as RORc inverse agonists” (Bioorg Med Chem Lett, 2015).
